The nature of data set [1]: Pharmacokinetic evaluation (bioavailability) in SD rats. Type of data set: in vivo. The conditions noted are these: 50 mg/kg. On the procedure:
The N-hydroxy-4-{5-[4-(5-isopropyl-2-methyl-1,3-thiazol-4-yl)phenoxy]pentoxy}benzamidine 2 ethansulfonic acid salt prepared in Example 1, and the N-hydroxy-4-{5-[4-(5-isopropyl-2-methyl-1,3-thiazol-4-yl)phenoxy]pentoxy}benzamidine 2 methansulfonic acid salt prepared in Comparative Example 2 were individually administered to SD rats in a dosage of 50 mg/kg. At given time points (0, 0.5, 1, 1.5, 2, 3, 5 and 8 hrs), rats were mildly anesthetized with diethyl ether, and blood samples were collected from the orbital venous plexus and stored at −20° C. until concentration analysis. The plasma samples were mixed with an equal volume of an internal standard substance solution (prepared by dissolving betamethasone in acetonitrile to give a final concentration of 30 μg/ml) with agitation for 1 min, and was centrifuged at 12,000 rpm for 10 min. Active components of the plasma samples were analyzed by HPLC (Model: Waters Module 1). From the obtained data, pharmacokinetic parameters [maximum blood concentration (Cmax) and area under the blood concentration-time curve (AUC)] were calculated by noncompartment analysis using the WinNonlin program (Version 1.0, Scientific Consulting Inc., USA).

A short description of data set [2]: Evaluation of solubility in solvents at room temperature. The class given is physicochemical. The text has this:
The N-hydroxy-4-{5-[4-(5-isopropyl-2-methyl-1,3-thiazol-4-yl)phenoxy]pentoxy}benzamidine 2 ethansulfonic acid salt prepared in Example 1, the N-hydroxy-4-{5-[4-(5-isopropyl-2-methyl-1,3-thiazol-4-yl)phenoxy]pentoxy}benzamidine prepared in Comparative Example 1, and the N-hydroxy-4-{5-[4-(5-isopropyl-2-methyl-1,3-thiazol-4-yl)phenoxy]pentoxy}benzamidine 2 methansulfonic acid salt prepared in Comparative Example 2 were examined for solubility (μg/ml) in various solvents at room temperature.

Data set [3] in a line: Evaluation of release rate in buffer solution (pH 1.2), paddle 50 rpm. The class given is physicochemical. The note with it: for release rate: buffer pH 1.2, paddle 50 rpm. An excerpt:
The N-hydroxy-4-{5-[4-(5-isopropyl-2-methyl-1,3-thiazol-4-yl)phenoxy]pentoxy}benzamidine 2 ethansulfonic acid salt prepared in Example 1, the N-hydroxy-4-{5-[4-(5-isopropyl-2-methyl-1,3-thiazol-4-yl)phenoxy]pentoxy}benzamidine prepared in Comparative Example 1, and the N-hydroxy-4-{5-[4-(5-isopropyl-2-methyl-1,3-thiazol-4-yl)phenoxy]pentoxy}benzamidine 2 methansulfonic acid salt prepared in Comparative Example 2 were examined for release rate (%) in a buffer solution (pH 1.2) at a paddle rotation speed of 50 rpm.

Data set [4] in a line: Evaluation of stability under accelerated conditions, HPLC content. Type of data set: physicochemical. The conditions noted are these: for change in content (stability in words): 60°C, 2 weeks; for Content: 60°C±2/75% RH±5, cap-opened vial. As for the experimental part:
The N-hydroxy-4-{5-[4-(5-isopropyl-2-methyl-1,3-thiazol-4-yl)phenoxy]pentoxy}benzamidine 2 ethansulfonic acid salt prepared in Example 1 was placed into a transparent glass vial, and stored at a cap-opened state under accelerated conditions (60° C.±2/75% RH±5) for a period of two weeks. Thereafter, the sample was analyzed by HPLC (Waters Module 1). The analysis was performed using a column packed with an octadecyl-silylated silica gel (Shiseido CAPCELL PAK C18, UG 120, Particle size 5 μm) under conditions: UV detection: 256 nm, injection volume: 10 μl, mobile-phase flow rate: 1.5 mL/min. The amount of the compound was calculated as an area percentage.

The next data set relates to ovalbumin-induced asthma. The note with it: asthmatic mice, cited from earlier work.
For another data set, the system named is callus / bone fractures. The note with it: rats, vs untreated control; cited from earlier work.
The mark [5] stands for this setting: dose-dependent, vs control group.

Counter-ions that a name gives are not always drawn.

As for `Cc1nc(-c2ccc(OCCCCCOc3ccc(C(=N)NO)cc3)cc2)c(C(C)C)s1` [2 Ethansulfonic acid salt, N-hydroxy-4-{5-[4-(5-isopropyl-2-methyl-1,3-thiazol-4-yl)phenoxy]pentoxy}benzamidine 2 ethansulfonic acid salt], in data set [1] (SD, rat, in vivo), the exposure (AUC) was determined as 10800 ± 833 ng·h/mL. Further, in data set [1] (SD, rat, in vivo), the “AUC, fold higher than 2 methanesulfonic acid salt” value is “about 1.2 fold”. In addition, the maximum concentration (Cmax) in data set [1] (SD, rat, in vivo) was 2360 ± 183 ng/mL. Further, the “Cmax, fold higher than 2 methanesulfonic acid salt” value in data set [1] (SD, rat, in vivo) is 1.3 fold. Further, in data set [1] (SD, rat, in vivo), the time to peak (Tmax) was found to be 2.13 ± 0.63 h. Also, in data set [1] (SD, rat, in vivo), the “Tmax, fold faster than 2 methanesulfonic acid salt” value amounted to 1.4 fold. The compound also gave a solubility in data set [2] (water) of 4420 µg/mL. For the same compound, the release rate was 14.8% in data set [3] (5 min), 20.5% in data set [3] (10 min), 24.2% in data set [3] (15 min) and 31.3% in data set [3] (30 min). Further, the figures for the “release rate, fold higher than 2 methanesulfonic acid salt” value in data set [3] (after 5 min), in data set [3] (after 10 min) and in data set [3] (after 15 min) were “about 2.8 fold”, “about 1.4 fold” and “about 1.2 fold”, respectively. The “change in content (stability in words)” value is given as “no change in content” in data set [4] and “no change in its content” in data set [4] (listed as 2 ethanesulfonic acid salt). For the same compound, the Content in data set [4] (after 1 week) was determined as 99.88%; in data set [4] (after 2 weeks), 99.86%; in data set [4] (early stage), 100.00%.
`Cc1nc(-c2ccc(OCCCCCOc3ccc(C(=N)NO)cc3)cc2)c(C(C)C)s1` [free base, N-hydroxy-4-{5-[4-(5-isopropyl-2-methyl-1,3-thiazol-4-yl)phenoxy]pentoxy}benzamidine]: in the data set with ovalbumin-induced asthma (setting [5]), the “number of eosinophils in bronchoalveolar lavage fluid” value was “significantly decreased”; the “total number of leukocytes and number of eosinophils (peripheral blood)” value is listed as “significantly decreased”. Also, the “increase in lung weight” value in the data set on ovalbumin-induced asthma (oral, 18 days, vs control given sterile distilled water) was “suppressed the increase in lung weight”. For the same compound, in the data set with ovalbumin-induced asthma (vs control group), the alveolar area result is recorded as “significantly increased”. For the same compound, in the data set on callus / bone fractures, the “bone mineral content and mechanical strength of callus” value is reported as “significantly enhanced”; the bone tissue density entry is “significantly increased”; the callus volume is “significantly reduced”; the “content of connective and soft tissues in the callus tissue” value is on record as “significantly reduced”. The same compound yielded a release rate in data set [3] (5 min) of 1.2%. In data set [3] (10 min), this compound displayed a release rate of 3.5%. The same compound showed a release rate in data set [3] (15 min) of 7.9%. In data set [3] (30 min), this compound had a release rate of 21.3%.
Regarding `CS(=O)(=O)O.CS(=O)(=O)O.Cc1nc(-c2ccc(OCCCCCOc3ccc(C(=N)NO)cc3)cc2)c(C(C)C)s1` [2 Methansulfonic acid salt, N-hydroxy-4-{5-[4-(5-isopropyl-2-methyl-1,3-thiazol-4-yl)phenoxy]pentoxy}benzamidine 2 methansulfonic acid salt], the AUC (area under the blood concentration-time curve) in data set [1] (SD rats) was 8970 ± 3090 ng·h/mL. The “Cmax (maximum blood concentration)” value in data set [1] (SD rats) is 1792 ± 912 ng/mL. Further, the “Tmax (time to reach maximum plasma concentration)” value in data set [1] (SD rats) worked out at 3.00 ± 1.63 h. The solubility in data set [2] (distilled water, room temperature) is on record as 3,535 μg/ml. For the same compound, the release rate in data set [3] (5 min) was 5.3%; in data set [3] (10 min) it was 13.9%; in data set [3] (15 min), 20.1%; in data set [3] (30 min), 34.3%.

The record behind these values is US8039635B2, “N-hydroxy-4-{5-[4-(5-isopropyl-2-methyl-1,3-thiazol-4-yl) phenoxy]pentoxy} benzamidine 2 ethansulfonic acid salt, process for the preparation thereof and pharmaceutical composition comprising the same” (Dong Wha Pharmaceutical Co., Ltd., priority 2007, dated 2011).
